Assay results published in US20260374731A1, “ANTIMICROBIAL CONJUGATED OLIGOELECTROLYTES AS BROAD-SPECTRUM ANTIBIOTICS” (The Regents of the University of California, priority 2023, published 2026).

Key:
[1] = tested on: S. aureus (SA) ATCC 259213; test: Susceptibility test (MIC), broth dilution, S. aureus; format: cell-based; conditions: Staphylococcus aureus, ATCC259213, read-out: Minimum Inhibitory Concentration
Description: (§1) The minimum inhibitory concentration (MIC) was determined according to the Clinical and Laboratory Standards Institute (CLSI) guidelines by broth dilution. Bacteria were cultured in an appropriate medium (such as Cation-Adjusted Muller Hinton Broth) for 6-12 hours and diluted into same medium containing 2-fold serial dilutions of antibiotics. MIC values were derived after 14-20 hour incubation, and were the result of at least 3 independent determinations. The MIC study included Gram-negative strains Salmonella enterica Typhimurium (ST) ATCC 14028, E. coli (EC) ATCC 25922, Pseudomonas aeruginosa (PA) ATCC 27853, and Klebsiella pneumoniae (KPN) ATCC 700603 and Gram-positive strain S. aureus (SA) ATCC 259213.

[2] = tested on: Salmonella enterica Typhimurium (ST) ATCC 14028; test: Susceptibility test (MIC), broth dilution, Salmonella enterica Typhimurium; format: cell-based; conditions: Salmonella enterica Typhimurium ATCC 14028, 14-20 hour incubation, read-out: Minimum Inhibitory Concentration
Description: as §1

E. coli (EC) ATCC 25922 = test: Susceptibility test (MIC), broth dilution, E. coli; format: cell-based; conditions: Escherichia coli, ATCC25922, E. coli ATCC 25922, 14-20 hour incubation, read-out: Minimum Inhibitory Concentration
Description: as §1

[3] = tested on: Klebsiella pneumoniae (KPN) ATCC 700603; test: Susceptibility test (MIC), broth dilution, Klebsiella pneumoniae; format: cell-based; conditions: ATCC700603, Klebsiella pneumoniae ATCC 700603, 14-20 hour incubation, read-out: Minimum Inhibitory Concentration
Description: as §1

[4] = tested on: Pseudomonas aeruginosa (PA) ATCC 27853; test: Susceptibility test (MIC), broth dilution, Pseudomonas aeruginosa; format: cell-based; conditions: ATCC27853, Pseudomonas aeruginosa ATCC 27853, 14-20 hour incubation, read-out: Minimum Inhibitory Concentration
Description: as §1

[5] = Cytotoxicity, MTT viability assay, HepG2; format: cell-based; conditions: human, hepg2 cells; HepG2, MTT, 24 h incubation, 8 to 1024 μg/mL; lowest concentration with viability less than 50%; read-out: Cytotoxicity (IC50)
Description: (§2) Cellular cytotoxicity was assessed using an MTT viability assay. HepG2 (ATCC HB-8065) cells were seeded at 1×10^4 cells/well in 96 well plates over night at 37 °C in DMEM supplemented with 10% FBS before use. Compounds were serially diluted with 2-fold dilution in culture media to afford a concentration ranging from 8 to 1024 μg/mL. After 24 h incubation, 10 μL of a 5 mg/mL solution of MTT was added to each well. After incubation for 2-4 h, upon discard of previous media, 100 μL of DMSO as solubilizing solution was added to each well, and absorbance at 570 nm were measured on a plate reader. Percent viability was determined by dividing background-corrected absorbance measurements by background corrected measurements for untreated cells. The lowest concentration for which percent viability was less than 50% was deemed the cytotoxicity IC50.

[6] = tested on: HepG2 (ATCC HB-8065) cells; test: Cytotoxicity, MTT viability assay, HepG2; format: cell-based
Description: as §2

[7] = tested on: all tested bacterial strains; test: Susceptibility test, comparison over all tested bacterial strains; format: cell-based, Gram-positive and Gram-negative bacteria
Description: as §1

[8] = Hydrophobicity (comparison; RP-HPLC retention times in Table 1); format: physicochemical
Excerpt: The MIC and cytotoxicity results for previously-described quaternary ammonium COEs COE2-3C, COE2-3C-C4butyl, and COE2-3C-C4hexyl are consistent with previous data (See Limwongyut et al., Chem. Sci. (2020) 11 (31): 8138-8144).

[9] = Formula C and Formula K compared with each other
[10] = Formula K and Formula A compared with each other
[11] = Formula C compared with COE2-3C-C4butyl
[12] = Formula A compared with COE2-3C and COE2-3C-C4butyl

In the case of `CCC(=N)N(C)CCCOc1cc(/C=C/c2ccc(/C=C/c3cc(OCCCN(C)C(=N)CC)cc(OCCCN(C)C(=N)CC)c3)cc2)cc(OCCCN(C)C(=N)CC)c1` [Formula D], the MIC [1] is reported as 1 µg/mL, the MIC [2] is reported as 2 µg/mL and the MIC (E. coli (EC) ATCC 25922) is reported as 1 µg/mL. It also gave an MIC [3] of 16 µg/mL, an MIC [4] of 8 µg/mL and a CC50 at 24 h [5] of over 1020 µg/mL.
In the case of `CN(CCCOc1cc(/C=C/c2ccc(/C=C/c3cc(OCCCN(C)C(=N)C4CC4)cc(OCCCN(C)C(=N)C4CC4)c3)cc2)cc(OCCCN(C)C(=N)C2CC2)c1)C(=N)C1CC1` [Formula B], the MIC [1] is reported as 1 µg/mL, the MIC [2] is reported as 1 µg/mL and the MIC (E. coli (EC) ATCC 25922) is reported as 1 µg/mL. The MIC [3] was 8 µg/mL, the MIC [4] was 8 µg/mL and the CC50 at 24 h [5] was 1020 µg/mL.
Work on `C/C(=N\C1CC1)NCCCOc1cc(/C=C/c2ccc(/C=C/c3cc(OCCCN/C(C)=N/C4CC4)cc(OCCCN/C(C)=N/C4CC4)c3)cc2)cc(OCCCN/C(C)=N/C2CC2)c1` [Formula K] yielded an MIC [1] of 1 µg/mL, an MIC [2] of 2 µg/mL and an MIC (E. coli (EC) ATCC 25922) of 2 µg/mL. The MIC [3] was 8 µg/mL, the MIC [4] was 32 µg/mL and the CC50 at 24 h [5] was over 1020 µg/mL. For the same compound, the “cytotoxicity (comparison)” value [6, 9] was “different cytotoxicity”, the “cytotoxicity (comparison)” value [6, 10] was “similar” and the “activity against all tested bacterial strains” value (from here on “activity”) [7, 9] was “identical activities against all tested bacterial strains”. The “hydrophobicity (comparison)” value [8, 9] was “different”.
Compound `CCC(=N)N(CCCOc1cc(/C=C/c2ccc(/C=C/c3cc(OCCCN(C(=N)CC)C4CC4)cc(OCCCN(C(=N)CC)C4CC4)c3)cc2)cc(OCCCN(C(=N)CC)C2CC2)c1)C1CC1` [Formula E] has an MIC [1] of 1 µg/mL, an MIC [2] of 2 µg/mL and an MIC (E. coli (EC) ATCC 25922) of 2 µg/mL. It also gave an MIC [3] of 8 µg/mL, an MIC [4] of 16 µg/mL and a CC50 at 24 h [5] of 128 µg/mL.
With `C/N=C(\C)NCCCOc1cc(/C=C/c2ccc(/C=C/c3cc(OCCCN/C(C)=N/C)cc(OCCCN/C(C)=N/C)c3)cc2)cc(OCCCN/C(C)=N/C)c1` [Formula H] the MIC [1] was 1 µg/mL, the MIC [2] was 2 µg/mL and the MIC (E. coli (EC) ATCC 25922) was 2 µg/mL. The MIC [3] was 16 µg/mL, the MIC [4] was 32 µg/mL and the CC50 at 24 h [5] was over 1020 µg/mL.
Compound `CCCN(CCCOc1cc(/C=C/c2ccc(/C=C/c3cc(OCCCN(CCC)C(=N)C4CC4)cc(OCCCN(CCC)C(=N)C4CC4)c3)cc2)cc(OCCCN(CCC)C(=N)C2CC2)c1)C(=N)C1CC1` [Formula C] has an MIC [1] of 1 µg/mL, an MIC [2] of 2 µg/mL and an MIC (E. coli (EC) ATCC 25922) of 2 µg/mL. The MIC [3] was 8 µg/mL, the MIC [4] was 32 µg/mL and the CC50 at 24 h [5] was 16 µg/mL. For the same compound, the “cytotoxicity (comparison)” value [6, 9] was “different cytotoxicity”, the “cytotoxicity (comparison)” value [6, 11] was “similar” and the “activity” value [7, 9] was “identical activities against all tested bacterial strains”. For the same compound, the “activity” value [7, 11] was “more active against all tested bacterial strains” and the “hydrophobicity (comparison)” value [8, 9] was “different”.
Work on `N=C(NCCCOc1cc(/C=C/c2ccc(/C=C/c3cc(OCCCNC(=N)C4CC4)cc(OCCCNC(=N)C4CC4)c3)cc2)cc(OCCCNC(=N)C2CC2)c1)C1CC1` [Formula A] yielded an MIC [1] of 0.5 µg/mL, an MIC [2] of 1 µg/mL and an MIC (E. coli (EC) ATCC 25922) of 1 µg/mL. For the same compound, the MIC [3] was 4 µg/mL, the MIC [4] was 2 µg/mL and the CC50 at 24 h [5] was over 1020 µg/mL. For the same compound, the “cytotoxicity (comparison)” value [6, 10] was “similar”, the “activity” value [7, 12] was “considerably higher activity against all tested bacterial strains” and the “activity” value ([7]; Formula A compared with Formula K) was “more active against all tested bacterial strains”. The “hydrophobicity (comparison)” value [8, 12] was “intermediate hydrophobicity”.
Compound `C(=C\c1cc(OCCCNC2=NCCC2)cc(OCCCNC2=NCCC2)c1)/c1ccc(/C=C/c2cc(OCCCNC3=NCCC3)cc(OCCCNC3=NCCC3)c2)cc1` [Formula J] has an MIC [1] of 1 µg/mL, an MIC [2] of 2 µg/mL and an MIC (E. coli (EC) ATCC 25922) of 1 µg/mL. The MIC [3] was 16 µg/mL, the MIC [4] was 16 µg/mL and the CC50 at 24 h [5] was 1020 µg/mL.
Work on `N=C(CC1CC1)NCCCOc1cc(/C=C/c2ccc(/C=C/c3cc(OCCCNC(=N)CC4CC4)cc(OCCCNC(=N)CC4CC4)c3)cc2)cc(OCCCNC(=N)CC2CC2)c1` [Formula G] yielded an MIC [1] of 1 µg/mL, an MIC [2] of 2 µg/mL and an MIC (E. coli (EC) ATCC 25922) of 2 µg/mL. The MIC [3] was 4 µg/mL, the MIC [4] was 8 µg/mL and the CC50 at 24 h [5] was 256 µg/mL.
With `CCCN(CCCOc1cc(/C=C/c2ccc(/C=C/c3cc(OCCCN(CCC)C(=N)CC)cc(OCCCN(CCC)C(=N)CC)c3)cc2)cc(OCCCN(CCC)C(=N)CC)c1)C(=N)CC` [Formula F] the MIC [1] was 1 µg/mL, the MIC [2] was 2 µg/mL and the MIC (E. coli (EC) ATCC 25922) was 2 µg/mL. It also gave an MIC [3] of 8 µg/mL, an MIC [4] of 16 µg/mL and a CC50 at 24 h [5] of 32 µg/mL.
